Measured values from patent publication US20180094248A1, “Necroptosis Signaling as a Therapeutic Target for Alzheimer's Disease” (Arizona Board of Regents on behalf of Arizona State …, priority 2016, published 2018).

System: 5xFAD mice
Assay: Fluoro-Jade staining of brain sections of 5xFAD mice treated with Nec-1S in vivo
Set-up: species or system mouse
Conditions: 8-month-old 5xFAD mice; 10 mg/kg i.p. once, then 0.5 mg/ml in drinking water for 21 days; vs vehicle
Experimental: Specifically, mice receive a single intraperitoneal injection of 10 mg/kg Nec1s after which they were given Nec1S in their drinking water at a concentration of 0.5 mg/ml for 21 days.
Immunohistochemistry: Coronal sections from hippocampus and temporal gyms of control (CTL) and Alzheimer's disease (AD) cases were pre-mounted on coated slides and washed in TBS. After blocking in TBSB (TBS, 2% BSA, and 0.1% Triton X), tissue was incubated overnight at 4° C. with the following primary antibodies: RIPK1 (1:200, BD Transduction Laboratories, catalog number 610459), MLKL (1:200, Novus Biologicals, catalog number NBP1-56729), RIPK3 (1:200, RD Systems catalog number MAB7604), pMLKL Ser358/Thr357 (1:200, Abcam, catalog number ab187091), pMLKL (1:200, SAB Signalway Antibody, catalog number 12837), NeuN (1:200, Cell Signaling, catalog number 024307P), Ibal (1:200, Wako, catalog number 09-19741), GFAP (1:200, Cell Signaling, catalog number 3670S), Caspase 3 (1:200, Millipore, catalog number AB3623), phospho-tau pSer202/Thr205 (ATB, 1:200, Thermo Fisher Scientific, catalog number MN1020), and pan-Cadherin (1:200, Abcam, catalog number ab6528 and ab6529). CP13 was a kind gift from Dr. Peter Davies. […]

## CN1C(=O)NC(Cc2c[nH]c3c(Cl)cccc23)C1=O (stereo not shown) [Nec1S, 5-((7-chloro-1 H-indol-3-yl)methyl)-3-methylimidazolidine-2,4-dione]
  Fluoro-Jade-positive neurons: fewer Fluoro-Jade-positive neurons compared to vehicle-treated 5xFAD mice
